Broadly, the IC50 is the concentration that inhibits the measured activity by half. A high value points to weaker potency.

Test [1] is described as follows: Inhibition of Arabidopsis thaliana IspD.
The nature of test [2]: Inhibition of wild type Plasmodium falciparum IspD extracted from Escherichia coli BL21 (DE3).
A short description of test [3]: Inhibition of Plasmodium falciparum IspD.
Test [4] in a line: Inhibition of Plasmodium falciparum 3D7 IspD.
The nature of test [5]: Inhibition of Plasmodium vivax IspD.

Where only a bound is given, the exact number is not on record here.

`N#Cc1cnn2c(O)c(Cc3ccccc3)c(Cl)nc12`: in test [1], half-maximal inhibition (IC50) required 35 µM.
In test [1], `COc1ccc2nc(NC(=O)c3cc(-c4ccccc4O)n[nH]3)sc2c1` gave an IC50 of 1.8 µM.
In turn, `COc1ccc2nc(NC(=O)COc3ccc(-c4ccccc4)cc3)sc2c1` yielded an IC50 in test [1] of 6.3 µM.
`O=C(O)[C@@H]1Cc2c([nH]c3ccccc23)[C@@H](c2ccc(Cl)cc2Cl)N1` returned an IC50 in test [2] of 0.25 µM.
The same measure, in the same setting: in the case of `O=C(O)[C@H]1Cc2c([nH]c3ccccc23)[C@H](c2ccc(Cl)cc2Cl)N1` it was 0.047 µM; in that of `O=C(O)[C@H]1Cc2c([nH]c3ccccc23)[C@@H](c2ccc(Cl)cc2Cl)N1`, 0.17 µM.
In the case of `Cc1ccc(C)n1-c1ccc([N+](=O)[O-])cc1C(=O)O`, inhibition in test [3] was half-maximal at 271 µM (IC50).
As for `O=C(O)c1cnn2c(O)c(Cc3ccccc3)c(Cl)nc12`, the IC50 in test [1] was 274 µM.
In the case of `O=c1c2ccccc2sn1-c1cccc(-c2ccc(Cl)cc2)c1`, the IC50 amounted to 0.073 µM in test [3], 1.1 µM in test [4] and 0.057 µM in test [5].
Turning to `Cc1ccc(-n2sc3ccccc3c2=O)cc1S(=O)(=O)N1CCOCC1`, the IC50 was found to be 0.45 µM in test [3], 4.3 µM in test [4] and 0.045 µM in test [5].
In turn, `Oc1c(Br)cc(Br)cc1-c1cc(C(F)(F)F)no1` had a concentration for half-maximal inhibition (IC50) in test [1] of 9.3 µM.
On the same count and under the same terms, in the case of `Oc1ccc(Br)cc1-c1cc(C(F)(F)F)no1` it was 418 µM; in that of `Oc1c(Br)cc(Br)cc1-c1ccno1`, 121 µM.
For the compound `CC(C)CCn1c(N)c(-c2nc3ccccc3[nH]2)c2nc3ccccc3nc21`, the IC50 in test [1] is 1.6 µM.
Same read-out and setting: for `Oc1ccc(Br)cc1-c1ccno1` the value was over 500 µM.
On the same count and under the same terms, in the case of `CCN(CC)CCCC(C)n1c(N)c(-c2nc3ccccc3[nH]2)c2nc(C#N)c(C#N)nc21` (configuration not stated) it was 50 µM.
For `Oc1c(Br)cc(Br)cc1-c1[nH]c(Br)c(Br)c1Br` [PENTABROMOPSEUDILIN], half-maximal inhibition in test [5] (IC50) required 48 µM. That is a double-digit micromolar value.
Still for that read-out and setting: for `Oc1c(Cl)cc(Cl)cc1-c1[nH]c(Br)c(Br)c1Br` [TRIBROMODICHLOROPSEUDILIN] the value was 56 µM.
